For orientation: Ki means a dissociation constant, usually derived from enzyme kinetics or from competition with a known ligand.

The record followed here is ChEMBL document CHEMBL5331130, “Analysis of Structure-Activity Relationships of Novel Inhibitors of the Macrophage Infectivity Potentiator (Mip) Proteins of Neisseria meningitidis, Neisseria gonorrhoeae, and Burkholderia pseudomallei” (J Med Chem, 2023).

SMILES strings stand for the structures.

In experiment [1] the test system is Neisseria meningitidis. Kind of experiment: Inhibition of Neisseria meningitidis Mip PPIase activity assessed as remaining activity using Suc-ALPF-pNA substrate measured at 400 nM by protease coupled assay relative to control.
The next experiment has as its system Neisseria gonorrhoeae. Kind of experiment: Antimicrobial activity against Neisseria gonorrhoeae infected in mouse RAW264.7 cells assessed as reduction in bacteria-induced cytotoxicity at 50 uM after 24 hrs by lactate dehydrogenase release assay relative to control. The class given is functional. On the set-up: scale not given: the % may be the effect or the level left.

Experiment [2] deals with Neisseria meningitidis. Kind of experiment: Antimicrobial activity against Neisseria meningitidis infected in mouse RAW264.7 cells assessed as reduction in bacteria-induced cytotoxicity at 50 uM after 24 hrs by lactate dehydrogenase release assay relative to control. Format: functional. More on the design: scale not given: the % may be the effect or the level left.
A short description of experiment [3]: Binding affinity to Burkholderia pseudomallei Mip measured after 1 hr by fluorescence polarization assay. The settings on record: read-out: Ki.
The test system of experiment [4] is Neisseria meningitidis. Kind of experiment: Inhibition of Neisseria meningitidis Mip NEIS0004 assessed as remaining activity using Suc-ALPF-pNA substrate measured at 400 nM by protease coupled assay relative to control.
Experiment [5] deals with Burkholderia pseudomallei. Kind of experiment: Antimicrobial activity against Burkholderia pseudomallei K96243 infected in mouse RAW264.7 cells assessed as reduction in bacteria-induced cytotoxicity at 50 uM after 24 hrs by lactate dehydrogenase release assay relative to control. The class given is functional. More on the design: scale not given: the % may be the effect or the level left.

For experiment [6], the system named is Burkholderia pseudomallei. Kind of experiment: Inhibition of Burkholderia pseudomallei Mip PPIase activity assessed as remaining activity using Suc-ALPF-pNA substrate measured at 400 nM by protease coupled assay relative to control.

As for `O=C(NCc1cccnc1)[C@@H](Cc1ccccc1)NC(=O)[C@@H]1CCCCN1S(=O)(=O)Cc1ccccc1`, the Activity in the experiment on Neisseria meningitidis [1] was 87.9%; with Neisseria gonorrhoeae it was 70.6%; in the experiment with Neisseria meningitidis [2], 60.8%; in the experiment on Neisseria meningitidis [4], 45.4%; in experiment [5] it was 30.4%; in experiment [6] it was 21.5%. Also, the inhibitory constant (Ki) in experiment [3] turned out to be 626 nM.

On to `O=C(N[C@@H](Cc1ccccc1)C(=O)NCc1ccc[n+]([O-])c1)C1CCCCN1S(=O)(=O)Cc1ccccc1` (mixture of isomers), for which the Activity in the experiment with Neisseria meningitidis [1] was 66.7%; in the experiment with Neisseria gonorrhoeae, 45.4%; in the experiment on Neisseria meningitidis [2] it was 76%; in the experiment on Neisseria meningitidis [4] it was 45.5%; in experiment [5] it was 46.2%; in experiment [6] it was 51.9%. For the same molecule, in experiment [3], the inhibition constant (Ki) stood at 4450 nM.

Turning to `O=C(O[C@@H](Cc1ccccc1)C(=O)NCc1cccnc1)C1CCCCN1S(=O)(=O)Cc1ccccc1` (mixture of isomers), the Activity in the experiment on Neisseria meningitidis [1] turned out to be 14%; in the experiment with Neisseria gonorrhoeae, 65.1%; in the experiment on Neisseria meningitidis [2] it was 38.4%; in the experiment with Neisseria meningitidis [4], 6.9%; in experiment [5], 68.5%; in experiment [6], 15.9%. In addition, the inhibition constant (Ki) in experiment [3] was determined as 48.8 nM.

Regarding `O=C(NCc1cccnc1)[C@@H](NC(=O)[C@@H]1CCCCN1S(=O)(=O)Cc1ccc(F)cc1)c1ccc(F)cc1`, the Activity is 43.3% with Neisseria meningitidis [1]; 31.4% in the experiment on Neisseria gonorrhoeae; 51.4% with Neisseria meningitidis [2]; 30.6% in the experiment with Neisseria meningitidis [4]; 46.7% in experiment [5]; 13.5% in experiment [6]. In experiment [3], the Ki worked out at 17 nM.

Regarding `O=C(NCc1cccnc1)[C@H](CCc1ccccc1)COC(=O)[C@@H]1CCCCN1S(=O)(=O)Cc1ccccc1`, the Activity in the experiment with Neisseria meningitidis [1] turned out to be 83.5%; in the experiment on Neisseria gonorrhoeae, 53.6%; with Neisseria meningitidis [2] it was 67.7%; in the experiment on Neisseria meningitidis [4], 70%; in experiment [5], 97.6%; in experiment [6] it was 101%. In experiment [3], the Ki was 3380 nM.

For the molecule `CC[C@H](C)[C@H](OC(=O)C1CCCCN1S(=O)(=O)Cc1ccccc1)C(=O)NCc1cccnc1` (mixture of isomers), the Activity worked out at 73.3% in the experiment on Neisseria meningitidis [1]; 35.4% with Neisseria gonorrhoeae; 58% in the experiment on Neisseria meningitidis [2]; 9.4% in the experiment with Neisseria meningitidis [4]; 94.3% in experiment [5]; 16.8% in experiment [6]. For the same molecule, the inhibition constant (Ki) in experiment [3] was found to be 3130 nM.
